Reference: patent publication US9738605B2, “Hybrid compounds of curcumin and melatonin as neuroprotectants for neurodegenerative disorders” (VIRGINIA COMMONWEALTH UNIVERSITY, priority 2013, dated 2017)
Where two headings read alike, the source gives them in different places.

Key:
MC65 cells [1] = assay: Neuroprotection assay in MC65 cells (−TC, MTT); conditions: for EC50: read-out: EC50 for neuroprotection of MC65 cells
Experimental: MC65 cells were washed twice with PBS, resuspended in Opti-MEM, and seeded in 96-well plates (4×10^4 cells/well). Indicated compounds were then added, and cells were incubated at 37° C. under +TC or −TC conditions for 72 h. Then, 10 μL of MTT (5 mg/mL in PBS) were added and the cells were incubated for another 4 h. Cell medium was then removed, and the remaining formazan crystals produced by the cellular reduction of MTT were dissolved in DMSO. Absorbance at 570 nm was immediately recorded using a FlexStation® 3 plate reader (Molecular Devices, CA).

Aβ42 = target: T1, Aβ42 (Homo sapiens, UniProt P05067); assay: Thioflavin T assay of Aβ42 fibril formation; format: biochemical; conditions: 10 μM compound, Aβ42 25 μm, 48 h, ThT; read-out: inhibition of the formation of Aβ42 fibrils
T1 construct: purchased American Peptide, Inc. (Sunnyvale, Calif.)
Experimental: Briefly, 1 μL of each compound solution in DMSO (0.01 μM to 100 μM) was added to corresponding wells in a 96-well plate. Each concentration was prepared in independent triplicates and a solvent control was included. To each well, 9 μL of 25 μM Aβ42 in PBS (pH 7.4) was added, and then plates were incubated in dark at room temperature for 48 h. Next, 200 μL of a 5 μM ThT in 50 mM glycine solution (pH 8.0) was added to each well.

[2] = background statement; cited from earlier work
[3] = PAMPA-BBB passive diffusion model; conditions: for Papp: PAMPA
Experimental: In the same assay, 10 commercial drugs with known CNS penetration were also tested as positive controls, and their experimental values were compared to reported values (Table 1).

[4] = system: intracellular oxidative stress in MC65 cells; assay: ROS production assay in MC65 cells (DCFH-DA); format: cell-based; conditions: −TC, 48 h, DCFH-DA 25 μM, read-out: IC50 for suppression of intracellular oxidative stress
Experimental: Cells were harvested, washed twice with cold PBS, then suspended in PBS and incubated with DCFH-DA (25 μM) in dark for 1 h. Fluorescence was analyzed by flow cytometry using a Millipore Guava® easyCyte flow cytometer.

[5] = system: amyloid-β oligomers (AβOs) in MC65 cells; assay: Western blot (6E10) of AβOs production in MC65 cells; format: cell-based; conditions: MC65 cells after removal of TC, 6E10 antibody
Experimental: MC65 cells (4×10^5 cells/mL) were treated with indicated compounds for 30 h and then were lysed by sonication in a Tricine buffer solution and boiled for 5 min. Protein samples were collected from the supernatant after centrifugation of the samples at 12,800×g for 5 min, and then quantified using the Bradford method. Equal amounts of protein (20.0 μg) were separated by SDS-PAGE on a gel (Bio-Rad) and transferred onto a PVDF membrane (Bio-Rad). The blots were blocked with 5% milk in TBS-Tween 20 (0.1%) solution at room temperature for 1 h and then probed with the 6E10 antibody overnight at 4° C. The blots were washed twice in TB S-Tween 20 for 15 min, and then incubated with a 1:1000 dilution of horseradish peroxidase-conjugated secondary antibody in a 5% milk/PBS-Tween 20 solution at room temperature for 1 h. After washing twice in TBS-Tween 20 for 15 min, the proteins were visualized by a Western Blot Chemiluminescence Reagent (Thermo Fischer Scientific, Waltham, Mass.). The blots were also probed with antibodies against α-tubulin to ensure equal loading of proteins.

HT22 cells = assay: Hydrogen peroxide toxicity assay in HT22 cells; format: cell-based, mouse; conditions: 24 h
Experimental: HT22 cells were seeded in 96-well plates (4×10^3 cells/well) in growth medium and incubated for 24 h at 37° C. The medium was removed and compounds were added at the indicated concentrations in fresh growth medium, and the cells were incubated for another 1 h. H2O2 was then added at a final concentration of 500 μM, and the plates were then incubated for 24 h. Cell viability was assessed by MTT assay as previously described. Values were expressed as a percentage relative to the negative (H2O2-free) control.

MC65 cells [6] = assay: Cytotoxicity in MC65 cells under normal growth conditions (+TC), MTT; format: cell-based; conditions: 72 h
Experimental: FIG. 7A-D. Effects on viability of TRO19622, Mito-TEMPO and 7 in MC65 cells. A. MC65 cells were treated with Mito-TEMPO or TRO-19622 at indicated concentrations under normal growth conditions (+TC) for 72 h. Cell viability was assessed by MTT assay. Data were expressed as mean percentage viability (n=3) with parallel +TC cultures set at 100% viability. Error bars represent SEM. B. MC65 cells were treated with Mito-TEMPO at indicated concentrations under −TC conditions for 72 h. Cell viability was assessed by MTT assay. Data were expressed as mean percentage viability (n=3) with parallel +TC cultures set at 100% viability. C. MC65 cells were treated with TRO-19622 at indicated concentrations under −TC conditions for 72 h. Cell viability was assessed by MTT assay. Data were expressed as mean percentage viability (n=3) with parallel +TC cultures set at 100% viability. D. MC65 cells were treated with 7 or Mito-TEMPO at indicated concentrations for 2 h before addition of rotenone for 48 h. Cell viability was assessed by MTT assay. Data were expressed as mean percentage viability (n=3) with parallel +TC cultures set at 100% viability. […]

MC65 cells [7] = assay: Rotenone protection assay in MC65 cells; format: cell-based; conditions: 10 μM, 48 h
Experimental: The medium was removed and compounds were added at the indicated concentrations in fresh growth medium, and the cells were incubated for another 2 h. Rotenone was then added at a final concentration of 10 μM, and the plates were then incubated for 48 h. Cell viability was assessed by MTT assay.

T1 sequence (P05067 672-713 limits assumed): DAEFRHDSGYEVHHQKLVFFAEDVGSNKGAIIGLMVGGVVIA

SMILES: COc1ccc2[nH]cc(CCNC(=O)CC(=O)C=Cc3ccco3)c2c1 [AM4]
- neuroprotection of MC65 cells from −TC induced cell death (MC65 cells [1]; 0.3 μM, −TC, 72 h, MTT): did not show neuroprotection

SMILES: COc1ccc2[nH]cc(CCNC(=O)CC(=O)C=Cc3ccoc3)c2c1 [AM5]
- protection compared to −TC control (MC65 cells [1]; 0.3 μM, −TC, 72 h): ~48%

SMILES: COc1ccc2[nH]cc(CCNC(=O)CC(=O)C=Cc3ccncc3)c2c1 [AM6]
- protection compared to −TC control (MC65 cells [1]; 0.3 μM, −TC, 72 h): ~33%

SMILES: COc1ccc2[nH]cc(CCNC(=O)CC(=O)C=Cc3ccc(N(C)C)cc3)c2c1 [AM14]
- protection compared to −TC control (MC65 cells [1]; 0.3 μM, −TC, 72 h): ~0.20%

SMILES: COc1cc(/C=C/C(=O)CC(=O)/C=C/c2ccc(O)c(OC)c2)ccc1O [Compound 1, Curcumin]
- inhibition at 10 µM (Aβ42): 27.3%
- neuroprotection of MC65 cells from −TC induced cell death (MC65 cells [1]; 0.3 μM, −TC, 72 h, MTT): no neuroprotection
- neuroprotection at much higher concentrations (data not shown) (MC65 cells [1]; 3 and 10 μM, −TC): moderate neuroprotection

SMILES: COc1ccc2[nH]cc(CCNC(C)=O)c2c1 [Compound 2, Melatonin]
- half-life [2]: < 30 min
- neuroprotection of MC65 cells from −TC induced cell death (MC65 cells [1]; 0.3 μM, −TC, 72 h, MTT): no neuroprotection

SMILES: COc1ccc2[nH]cc(CCNC(=O)CC(=O)/C=C/c3ccc(O)c(OC)c3)c2c1 [Compound 3]
- Permeability Pe (exp.) ([3]; PBS:EtOH (70:30), mean ± SD of 3 independent experiments): 6.5 ± 0.6 10^−6 cm s^−1
- Prediction of penetration in the CNS ([3]; from Pe (exp.) and correlation with reported values): CNS− (compounds with Pe<8.1×10^−6 cm s^−1 will have low BBB permeability by passive diffusion)
- increase in cell viability (MC65 cells [1]; 0.3 μM, −TC, 72 h): ~61%
- EC50 (MC65 cells [1]; −TC conditions, 72 h, MTT): 134 ± 4.5 nM

SMILES: COc1cccc(C=CC(=O)CC(=O)NCCc2c[nH]c3ccc(OC)cc23)c1 [Compound 4]
- neuroprotection of MC65 cells from −TC induced cell death (MC65 cells [1]; 0.3 μM, −TC, 72 h, MTT): complete loss of neuroprotection

SMILES: COc1ccc2[nH]cc(CCNC(=O)CC(=O)/C=C/c3ccc(O)cc3)c2c1 [Compound 5]
- Papp [3]: 5.9 ± 0.4 ×10⁻⁶ cm/s
- neuroprotection of MC65 cells from −TC induced cell death (MC65 cells [1]; 0.3 μM, −TC, 72 h, MTT): significant neuroprotection
- EC50 (MC65 cells [1]; MC65, 72 h): 23.1 ± 5.23 nM
- IC50 [4]: ~63 nM
- effect on the production of AβOs (tetramers, pentamers, heptamers) [5]: dose-dependently suppressed

SMILES: OO [Compound H2O2, H2O2]
- HT22 cell death (HT22 cells; 500 μM): ~58%

SMILES: CC1(C)CC(NC(=O)C[P+](c2ccccc2)(c2ccccc2)c2ccccc2)CC(C)(C)N1[O] [Mito-TEMPO, reference compound]
- toxic effects in MC65 cells under +TC (MC65 cells [6]; up to 10 μM): did not show toxic effects
- protection from −TC induced cytotoxicity (MC65 cells [1]; indicated concentrations, maximum 10 μM, −TC, 72 h): dose-dependently protected

SMILES: CN1C(C(=O)Nc2ccccn2)=C(O)c2ccccc2S1(=O)=O [Piroxicam, reference compound]
- Papp [3]: 6 ± 0.3 ×10⁻⁶ cm/s

SMILES: CN(C)CCCN1c2ccccc2Sc2ccccc21 [Promazine, reference compound]
- Papp [3]: 25.1 ± 1.4 ×10⁻⁶ cm/s

SMILES: CC(C)CCC[C@@H](C)[C@H]1CC[C@H]2[C@@H]3CCC4=CC(=NO)CC[C@]4(C)[C@H]3CC[C@]12C [TRO-19622, reference compound]
- cytotoxicity in MC65 cells under +TC (MC65 cells [6]; up to 25 μM): did not show cytotoxicity
- protection from −TC induced cytotoxicity (MC65 cells [1]; up to 25 μM, −TC, 72 h): did not show significant protection

SMILES: Cc1c(C)c2c(c(C)c1O)CCC(C)(C(=O)O)O2 (centres unmarked) [Trolox, 6-hydroxy-2,5,7,8-tetramethyl chroman-2-carboxylic acid]
- protection from H2O2-induced cytotoxicity (HT22 cells; 300 μM, H2O2 500 μM): full rescue

SMILES: COc1ccc2[nH]cc(CCNC(=O)CC(=O)C=Cc3ccc4c(c3)OCO4)c2c1 [ZSJ-II-126]
- neuroprotection of MC65 cells from −TC induced cell death (MC65 cells [1]; 0.3 μM, −TC, 72 h, MTT): diminished protection

SMILES: C=C(C)[C@H]1Cc2c(ccc3c2O[C@@H]2COc4cc(OC)c(OC)cc4[C@@H]2C3=O)O1 [rotenone, reference compound]
- cell death of MC65 cells (MC65 cells [7]): 75.6%
